Series [1] deals with Adult male Sprauge-Dawley rats. Kind of series: Extinction of conditioned avoidance response (CAE) in a shuttle box. It counts as in vivo. The following applies: 10 mg/kg and 30 mg/kg i.p. on the 2 days prior to testing and 1 hour before it, extinction tested during 14 days vs saline control. How it is done: Adult male Sprauge-Dawley rats (Charles River, Wilmington, MA), age 25 weeks and weighing 350-400 g, are separately housed in stainless steel cages with continuous access to food and water, a 12-hour light-dark cycle, and constant room temperature of 22° to 24 C. All testing took place approximately 6 hours into the dark component of the light-dark cycle and was conducted in a dimly lighted soundproof room using a standard shuttle box device ([…] Valley Electronics #146-04), a plexiglass chamber (50 x 20 x 20 cm) divided by a center barrier 7 cm in height. The conditioned stimulus consisted of a 10-second tone provided by a Sonlert mounted in the midpoint of the ceiling of the chamber. Floor current of 0.8 mA was delivered by a constant current shocker-scrambler ([…] Valley Electronics #133-33). The day before the initiation of training each animal was allowed to explore the experimental chamber for 10 minutes without any tone or shock. Training was conducted for 15 days following the day of experimental chamber exploration. Each animal received 20 trials per day on a 30-second variable interval schedule. No drug treatment was administered during the training period. Shock could be avoided by shuttling from one side of the center barrier to the other during the 10-second tone period. […] Animals which consistently remained on the center barrier were removed from the study. Automatic counters recorded the number of avoidance responses, escapes, and intertrial crossings, while a running time meter recorded the total shock duration for each animal. Animals not meeting the admittance criterion of correct avoidance rsponding on at least 85% of the trials for 4 out of the last 5 days of training were removed from the study. A total of 99 rats reaching the admittance criterion were tested for extinction of conditioned avoidance response (CAE) during 14 days. […] All solutions were prepared fresh and administered i.p. ([…]) on the 2 days prior to testing and then 1 hour before it. […] The tone was simply discontinued and the testing proceeded. Two-way analysis of variance of the CAE data yielded an overall significant difference in the rate of shuttle extinction between treatment groups.

`COC(=O)C1=CCCN(C)C1` [arecoline]: in the series on Male albino (BKW) mice (mouse, in vivo), the “basal learning (speed of habituation)” value was “the time course of the basic 'learning' or habituation was unaffected”.
With `C[C@H](CS)C(=O)N1CCC[C@H]1C(=O)O` [captopril], the “protective effects on memory of previously learned tasks (rate of shuttle extinction)” value (“protective effects on memory” below) in series [1] is “possess protective effects on memory of previously learned tasks”.
Consider `COc1ccc([C@@H]2Sc3ccccc3N(CCN(C)C)C(=O)[C@@H]2OC(C)=O)cc1` [diltiazem], for which, in series [1], the “protective effects on memory” value is “possess protective effects on memory of previously learned tasks”. For the same molecule, the “antagonism of impairment in habituation caused by acute challenge with scopolamine” value with Male albino (BKW) mice (mice, scopolamine 0.25 mg/kg i.p. acute challenge (days 6 and 10 for diltiazem), arecoline 50 mg/kg/day i.p. infusion, hydergine 0.1 mg/kg p.o. daily, listed as Diltiazem) is reported as “found to antagonize the impairment in habituation performance”.
Consider `C[C@@H](CS)C(=O)N1CCC[C@H]1C(=O)O` [epicaptopril], for which the “protective effects on memory” value in series [1] is recorded as “do not have protective effects against loss of memory of previously learned tasks”.
Turning to `C[C@](N)(Cc1ccc(O)c(O)c1)C(=O)O` [methyldopa], the “protective effects on memory” value in series [1] was “do not have protective effects against loss of memory of previously learned tasks”.
Consider `CN1[C@@H]2C[C@@H](OC(=O)[C@H](CO)c3ccccc3)C[C@H]1[C@@H]1O[C@@H]12` [scopolamine], for which the “influence on habituation of the challenge agent, daily challenge” value in the series on Male albino (BKW) mice (mouse, in vivo) is listed as “The habituation was impaired throughout the time of scopolamine challenge”. In addition, in the series with Male albino (BKW) mice (mouse, in vivo, ip, 0.25 mg/kg), the autonomic disturbance entry is on record as “did not cause autonomic disturbance” and the effect on vision entry was “lack of effect on vision”.
`C[C@H](CSC(=O)c1ccccc1)C(=O)N1C[C@@H](Sc2ccccc2)C[C@H]1C(=O)O` [zofenopril]: in series [1], the “protective effects on memory” value is recorded as “possess protective effects on memory of previously learned tasks”.
